Tested on: androgen receptor α (ARα)
Experiment: Gal4DBD-LBD/UAS luciferase transactivation assay in U-2 OS cells
Type: cell-based, Apteronotus albifrons

`C[C@]12CC(=O)[C@H]3[C@@H](CCC4=CC(=O)CC[C@@]43C)[C@@H]1CC[C@@H]2O` [11-KT] was tested, and the EC50 was 10 nM.
